Experimental data as given in US9968610B2, “Pyrrolopyrimidine derivatives as NR2B NMDA receptor antagonists” (Rugen Holdings (Cayman) Limited, priority 2014, dated 2018).

Test system: Rats
Test: Electroconvulsive threshold (ECT) test
Assay type: in vivo, rat
Settings: p.o. 60 minutes before ECS, theophylline 128 mg/kg, diazepam 16 mg/kg

Structure (SMILES)	pro- or anticonvulsant activity (electroconvulsive threshold)
CN1C(=O)CN=C(c2ccccc2)c2cc(Cl)ccc21 [diazepam]	expected pro- and anticonvulsant activities
Cn1c(=O)c2[nH]cnc2n(C)c1=O [theophylline, Theophylline]	expected pro- and anticonvulsant activities
